Holding throughout (type): cell-based, mouse
The test system of one test is C2C12 myotubes. As to the kind of experiment: Morphological changes in myotubes by optical microscopic observation. As to the method: (§1) The C2C12 mouse myoblast cell line was cultured in a culture medium containing 90% DMEM/HG, 10% fetal bovine serum (FBS), and 100 unit/ml penicillin/streptomycin at 37° C. under 5% CO2 condition.
(§2) 100,000 cells were seeded in 6-well plate. After 4 days, the medium was replaced with a differentiation medium containing 5% horse serum and 100 unit/ml penicillin/streptomycin, and 95% DMEM/HG for differentiation into myotubes at 100% confluence. Here, the date on which the culture medium was replaced with the differentiation medium was designated as day 0, and the differentiation medium was replaced with fresh differentiation medium every day from day 3 to day 5.
The medium was removed on day 5 to induce muscle atrophy and/or muscle loss, and the culture medium was treated with mitomycin C (hereinafter referred to as MMC) at concentrations of 20 μM, 40 μM, and 100 μM for 24 hours, respectively. An optical microscopic observation was used to identify changes that occurred during the process of muscle atrophy and/or muscle loss. After a predetermined period of time, the medium was removed, and the cells were treated with 0.25% trypsin-ethylene diamine tetra-acetic acid (EDTA, Gibco), and the cells were collected in a culture medium, followed by centrifugation at 1,500 rpm for 3 minutes. […]

The next test relates to MuRF-1. As to the kind of experiment: MuRF-1 mRNA expression level in myotubes (qPCR). The following applies: 40 μM. The method, then: as §1, §2
(§3) The medium was removed on day 5 to induce muscle atrophy and/or muscle loss, and the culture medium was treated with mitomycin C (hereinafter referred to as MMC) at concentrations of 20 μM, 40 μM, and 100 μM for 24 hours, respectively. An optical microscopic observation was used to identify changes that occurred during the process of muscle atrophy and/or muscle loss. […]
(§4) RNA was extracted from the cells using AccuPrep®Universal RNA Extraction Kit (Bioneer). CDNA was synthesized using SuperScript™ IV Reverse Transcriptase purchased from Invitrogen, and quantitative real-time polymerase chain reaction (qPCR) was performed using PowerSYBR green PCR Master Mix from Applied biosystem to confirm the mRNA expression level. […]

For another test, the system named is Atrogin-1. The experiment in a line: Atrogin-1 mRNA expression level in myotubes (qPCR). The note with it: 40 μM. As to the method: as §1, §2, §3, §4
Where [1] appears, read: C2C12 myotubes, 24 hours, compared with 20 μM, dexamethasone 100 μM and control (FIG. 5).
Where [2] appears, read: serum-free medium, 24 hours (FIG. 7).

The structures appear in SMILES notation.

For `CO[C@@]12[C@H](COC(N)=O)C3=C(C(=O)C(C)=C(N)C3=O)N1C[C@@H]1N[C@@H]12` [mitomycin C], the “thickness, length, and number of myotubes” value is on record as “significantly reduced” in the test on C2C12 myotubes (C2C12 myotubes, 40 μM or less, 24-hour treatment, vs untreated control (FIG. 4)) and “significant decrease” in the test on C2C12 myotubes (serum-free medium, 40 μM, 24 hours (FIG. 6)). Moreover, the “mRNA expression level of MuRF-1” value in the test on MuRF-1 (setting [1]) is recorded as “the highest”; with MuRF-1 (setting [2]), “maintained in an increased state”. Moreover, the “mRNA expression level of Atrogin-1” value was “the highest” with Atrogin-1 (setting [1]) and “maintained in an increased state” in the test with Atrogin-1 (setting [2]).

These data come from US20260276626A1, “METHOD FOR SCREENING THERAPEUTIC AGENT FOR MUSCLE WEAKNESS-RELATED DISEASES” (ENCELL CO., LTD., priority 2023, published 2026).
